Patent US20140271885A1, “COPOLYMERS FOR STABLE MICELLE FORMULATIONS” (Intezyne Technologies, Inc., priority 2013, published 2014)

Details: rat, in vivo, iv, 10 mg/kg
Experimental: The delivery vehicle for drug administration was isotonic saline. Rat blood was collected from the catheter into K2-EDTA tubes […] at time points of 1, minute, 5 minutes, 15 minutes, 1 hour, 4 hours, 8 hours and 24 hours. Plasma was isolated by centrifugation at 1000 RPM for 5 minutes, and 150 uL of extraction solution (ice cold methanol/100 ng/mL daunorubicin internal standard) was added to 50 uL of each plasma sample. Samples were then vortexed for 10 minutes, centrifuged at 13,000 RPM for 10 minutes, and 150 uL of the supernatant is transferred to HPLC vials for analysis. […] A 5 μL sample injection was made onto a Waters 4 μm Nova Pak C18 (3.9×150 mm) at 30° C. with a flow rate of 0.750 mL per minute of 10 mM phosphate buffer (pH=1.4), methanol and acetonitrile (gradient from 70/10/20 to 40/10/50 for buffer/methanol/acetonitrile was made over eight minutes).

COc1cccc2c1C(=O)c1c(O)c3c(c(O)c1C2=O)C[C@@](O)(C(C)=O)C[C@@H]3O[C@H]1C[C@H](N)[C@H](O)[C@H](C)O1 [Free Daunorubicin, daunorubicin]
AUC (area under the concentration versus time curve, exposure of daunorubicin to the plasma compartment): 1300 ng·h/mL
Half-life (terminal, elimination): 3.3 h
